The text on the assay:
A test tank with a capacity of approximately 1100 liters was fitted with a HAYWARD® sand filter. The filter was approximately 0.09 square meters and contained approximately 18 kg of coarse sand. An identical tank was fitted with a HAYWARD ® cartridge filter, as is typically used with swimming pools. […] Water is then drawn through the filters using a pump. Each unit was fitted with necessary plumbing to permit test samples of reactant to be added upstream of the filter, to simulate adding the reactant to the skimmer in a full-sized pool. In this way, the reactant could be drawn through the plumbing and into or onto the filter. In this test orthophosphate, in the form of Na2HPO4, was used to simulate the increased phosphate level present in the water.
This suspension was added upstream of the filter, thus it was drawn toward and into the filter.

`O=S(=O)([O-])[O-].O=S(=O)([O-])[O-].O=S(=O)([O-])[O-].[La+3].[La+3]` [La2(SO4)3, lanthanum sulfate]: the “ratio of PO4 recovered to La added” value (commercial grade (approximately 99.5% purity), 0.8 g Na2HPO4 added, otherwise as Example 1) was 0.35. The PO4 removed (reagent grade (99.9% pure), 3.5 g in 50 ml tap water added upstream of filter, 1135 L, approx. 800 ppb phosphate, after 2 hours pumping at approx. 75 L/min) amounted to 0.65 g. For the same compound, the “ratio of PO4 to La observed in the experiment” value (reagent grade (99.9% pure), 3.5 g, after 2 hours) is given as 0.38.
